Results on 86 compounds are retold here after PubChem BioAssay AID2305 (GlaxoSmithKline (GSK), 2010).

Molecules are shown by their SMILES.

The test system of the assay is P. falciparum 3D7 growth, pLDH absorbance. Nature of the assay: blood-stage malaria parasite growth potency – strain 3D7, dose response (AID 2305).
Take `COc1ccc(C(=O)N2CCC3(CC2)C(=O)N(CC(=O)NCC2CCCCC2)CN3c2ccccc2)cc1`: the IC50 – broadly, the midpoint of a concentration-inhibition curve – turned out to be 0.27 µM.
The value for `O=C(Nc1cccc(CN2CCCN(Cc3cccc(Cl)c3)CC2)c1)c1ccc(-c2ccccc2)cc1` was 1.23 µM.
With `COCc1cc(C)nc2sc(C(=O)Nc3cc(C(C)(C)C)ccc3O)c(N)c12`, the IC50 was 0.71 µM.
The value for `CCCCCCCCCC(=O)NCC1CC(Br)=NO1` (stereo unspecified) was 1.05 µM.
The value for `Cc1nc(-c2cccc(C(=O)N(Cc3cncn3Cc3cccc(C(F)(F)F)c3)CC3CC3)c2)cs1` was 0.94 µM; that for `Cc1ccc(-c2csc(C)n2)c(C)c1` was 0.99 µM.
With `O=C(NCCCCN1CCC(c2nc3ccccc3s2)CC1)c1cc2ccccc2[nH]1`, the IC50 is 1.02 µM.
The value for `OC(CNC1CCCCCC1)c1ccc(Cl)c(Cl)c1` (stereo unspecified) was 0.69 µM; that for `CC(C)n1cc2c(ccc3nc(N)nc(N)c32)n1` was 0.04 µM.
The value for `CCCCCCN1CCC(NCc2cccc(C#N)c2)CC1` was 0.78 µM.
For `COc1ccc(Nc2nccc(-c3ccc4ccnc(NCCCCN)c4c3)n2)cc1`, the half-maximal inhibitory concentration (IC50) was 0.75 µM.
Compound `O=C(Nc1cccc(F)c1)NC1CCN(c2ccnc3cc(Cl)ccc23)CC1` registered an IC50 of 0.61 µM.
The value for `Cc1[nH]c(C)c(-c2ccc(-c3ccc(OC(F)(F)F)cc3)cc2)c(=O)c1Cl` was 0.04 µM.
As for `CN(C)CCCNCc1cn(S(=O)(=O)c2ccccc2Cl)c2ccccc12`, the figure is 1.07 µM; as for `COc1ccc2nccc([C@@H](O)CN3CCC(NC(=O)Cn4nc(-c5ccc(C(F)(F)F)cc5)ccc4=O)CC3)c2c1`, 0.74 µM; as for `NC(N)=Nc1nc(-c2ccc(N=C(N)N3CCC[C@H]3CN3CCCC3)cc2)cs1`, 1.11 µM.
As for `Nc1ncc(Cc2ccc3c(ccc4ccccc43)c2)c(N)n1`, the half-inhibitory concentration (IC50) was 0.76 µM.
The value for `CN(C)CCNC(=O)[C@H](CC1CCCCC1)NC(=O)c1ccc(O)c(-c2ccc(Cl)c(Cl)c2)c1` was 0.77 µM; that for `C[C@H]1CN(Cc2cccc(-c3cc(CNC(=O)c4cccc(CC5CCN(C)CC5)c4)ccc3F)c2)CCN1C` was 1.09 µM.
Take `Fc1ccc(-c2nc(NCc3cccc(C(F)(F)F)c3)nn2-c2cccc(C(F)(F)F)c2)cc1C(F)(F)F`: the IC50 was found to be 1.05 µM.
As for `CN(C)c1cccc(NC(=O)N[C@H]2N=C(c3ccccc3)c3ccccc3N(CC(=O)N3CCCC3)C2=O)c1`, the figure is 0.25 µM; as for `COc1ccc(CN2CCC(CNCCc3c(Cl)cccc3Cl)CC2)cc1`, 0.43 µM; as for `Fc1ccc2nc(-c3ccc(-c4ccc(CN5CCN(CCN6CCOCC6)CC5)cc4)cc3)[nH]c2c1`, 0.18 µM.
In the case of `COc1ccc(Nc2ccnc3cc4ccccc4cc23)cc1`, the IC50 came to 0.68 µM.
The value for `CCCOc1cc2c(cc1OCCC)C(C=Cc1ccc(Cl)cc1Cl)=NC(C)C2` (stereo unspecified) was 0.37 µM; that for `O=C1O[C@H](c2ccccc2)[C@H](c2ccccc2)N(C(=O)OCc2ccccc2)[C@H]1Cc1ccccc1C1CCCC1` was 0.06 µM; that for `Cc1cc(N2CCCN(CC3CCCCC3)CC2)nc(Nc2ccc(Br)cc2)n1` was 0.94 µM.
The value for `O=C(CCCCCc1ccccc1)NC1CCC(CN2CCC(c3c[nH]c4ccccc34)CC2)CC1` (stereo unspecified) was 1.14 µM.
As for `Fc1ccc2nc(-c3cccc(-c4cccc(CNCCc5ccncc5)c4)c3)[nH]c2c1`, the figure is 0.17 µM; as for `COc1ccc2ncc(F)c(CCN3C[C@H](CNCc4ccccc4)[C@H](O)C3)c2n1`, 0.91 µM; as for `CNC(=O)c1ccccc1Nc1nc(Nc2cccnc2)ncc1C`, 0.1 µM.
In turn, `CCN(CC)CCN(Cc1ccc(-c2ccc(C(F)(F)F)cc2)cc1)C(=O)Cn1c(CCc2cccc(F)c2F)nc(=O)c2cc(F)c(F)cc21` registered an IC50 of 0.83 µM.
For the compound `Cc1cc(NN=Cc2ccc(F)cc2)c2ccc(F)cc2n1`, the IC50 is 0.95 µM.
The value for `Cc1[nH]c2ccccc2c1C1=CCN(CCN2CCOc3c(Br)cccc3C2=O)CC1` was 0.8 µM; that for `Cc1ccc2nc(C)n(C3CCN(C(=O)C4(c5ccccc5)CC4)CC3)c2c1` was 0.82 µM.
The value for `CCC1(C)N=C(N)N=C(N)N1c1ccccc1` (stereo unspecified) was 0.79 µM.
`Cc1c(N)ccc2[nH]c(-c3ccc(N)cc3)nc12` displayed a concentration for half-maximal inhibition (IC50) of 1.21 µM.
As for `CN1CCN(Cc2cccc(-c3ccc4c(Nc5ccc(Oc6cccnc6)cc5)ccnc4c3)c2)CC1`, the figure is 0.19 µM; as for `O=C(N[C@@H](Cc1ccccc1)C(=O)O)c1cc(-c2ccc(F)cc2)no1` (tested in a mixture with another compound), 0.8 µM.
The value for `Cc1ccc(C)c(NC(=O)Nc2ccc(Nc3nc(C)cc(N4CCOCC4)n3)cc2)c1` was 0.98 µM.
Compound `CC[C@H](C)CNC(=O)c1ccnc(-c2ccc(CN3CCC(N4CCCC4)CC3)cc2)c1` came in with an IC50 of 0.89 µM.
The value for `Fc1ccc(Nc2ccnc3cc(-c4cccc(CNCCN5CCOCC5)c4)ccc23)c(Cl)c1` was 0.14 µM.
The value for `COc1cc(NCC(O)CNc2cc(Cl)nc3ccccc23)nc2ccccc12` (stereo unspecified) was 0.42 µM; that for `CN(C)CCCN1CCN(C(=O)c2cccc(-c3noc(C(F)(F)F)n3)c2)CC1` was 0.35 µM; that for `CCNc1cc(C(=O)N[C@@H](Cc2ccccc2)[C@H](O)CN[C@@H]2CCc3ccccc32)cc(N2CCCCS2(=O)=O)c1` was 0.55 µM.
`CCN(CCCN1CCCCC1)c1cc(C)nc(Nc2ccc(Cl)c(C(F)(F)F)c2)n1`: the IC50 is 0.17 µM.
As for `O=C(NCCc1cccc(F)c1)c1ccc(N2CCN(c3ccncc3)CC2)cn1`, the figure is 1.02 µM.
As for `CCN(CC)CCN(CCN(CC)CC)c1ccc2c(c1)Sc1c(Cl)ccc(Cl)c1S2`, the figure is 0.88 µM; as for `CCOC(=O)c1cnc2c(C(F)(F)F)cccc2c1Nc1ccc(O)cc1`, 0.63 µM.
The value for `COc1ccc(Cl)cc1N1CCN(CCCNC(=O)c2ccc(-c3nc4ccc(C(F)(F)F)cc4[nH]3)c(C)c2)CC1` was 0.76 µM.
`CCOc1c(Br)cc(Cl)cc1CNCCCNc1nc2ccccc2[nH]1` had a concentration for half-maximal inhibition (IC50) of 0.69 µM.
`CCCNCCc1ccc(NS(=O)(=O)c2cccc(-c3ccc(Cl)cc3)c2)cc1` returned a half-maximal inhibitory concentration (IC50) of 0.97 µM.
The value for `CN(c1ccc2c(c1)nc(Nc1ccc(Cl)cc1)n2C)c1ccnc(Nc2ccc(CS(C)(=O)=O)cc2)n1` was 0.76 µM; that for `C[C@@H](NC(=O)NC(CCN1CCC2(CC1)CN(S(C)(=O)=O)c1ccccc12)c1ccc(Cl)c(Cl)c1)c1ccccc1` (stereo partly specified) was 0.9 µM; that for `CCOc1ccc(N2CCN(CCCCNC(=O)c3ccc(NC(=O)c4ccc(Cl)cc4)cc3)CC2)c(OCC)c1` was 0.57 µM.
As for `Cc1cc(-c2ccc(NC(=O)N3CCc4cc(Br)c(N5CCN(C)CC5)cc43)cc2)cc(C)n1`, the figure is 1.01 µM.
As for `COc1ccc2nccc(C(=O)NC3CCC(CCN4CCc5cc(C#N)ccc5C4)CC3)c2c1` (stereo unspecified), the figure is 1.16 µM; as for `N#Cc1cccc([C@H](O)[C@@H]2CN(CCC3CCCCC3)CC[C@@]2(O)c2ccccc2)c1`, 0.13 µM; as for `CC(C)(C)OC(=O)[C@H](CC(N)=O)NC(=O)c1ccc(-c2ccc(-c3nc4ccc(C(F)(F)F)cc4[nH]3)s2)cc1`, 0.27 µM.
For the compound `CC1(C)N=C(N)N=C(N)N1OCCSCCON1C(N)=NC(N)=NC1(C)C`, the IC50 is 0.05 µM.
With `Cc1cc(N(C)C)nc(Nc2ccc(NC(=O)c3ccccc3C)cc2)n1`, the IC50 was determined as 1.13 µM.
Compound `Cc1cccc2[nH]c(-c3ccc(-c4ccc(CNCCc5ccncc5)cc4)cc3)nc12` displayed an IC50 of 0.21 µM.
With `O=[N+]([O-])c1cnc(Nc2ccccc2O)nc1Nc1ccccc1O`, the 50% inhibitory concentration (IC50) is 0.9 µM.
The value for `O=S(=O)(Nc1ccc(CCN2CCCCC2CCN2CCCC2)cc1)c1ccc(-c2ccccc2)cc1` (stereo unspecified) was 0.93 µM; that for `O=C(Nc1cccnc1)c1cc(-c2cccnc2)nc2ccc(Br)cc12` was 0.64 µM.
For `CCN(c1ccccc1)S(=O)(=O)c1ccc(OC)c(NC(=O)c2cccc(C(F)(F)F)c2)c1`, the IC50 came to 0.88 µM.
In turn, `CC(C)[C@H](NC(=O)c1ccc(O)c(-c2cccc(C(F)(F)F)c2)c1)C(=O)NCCN1CCCCC1` had an IC50 of 0.84 µM.
As for `Nc1ncc(-c2cc3ccccc3o2)c(N)n1`, the figure is 1.41 µM.
The value for `COc1ccc2ccccc2c1CCCCN1CCN(CC(c2ccc(F)cc2)N2CCN(C3CCCC3)CC2)CC1` (stereo unspecified) was 0.77 µM.
The value for `Cn1ccnc1CNC(=O)c1ccc(-c2ccc(-c3nc4ccc(C(F)(F)F)cc4[nH]3)s2)cc1` was 0.7 µM.
For `COc1ccc(Nc2ncc3c(-c4ccc(NC(=O)c5cccc(C(F)(F)F)c5)cc4)c[nH]c3n2)cc1OC`, the concentration for half-maximal inhibition (IC50) came out at 1.03 µM.
The compound `CC(=O)N(C)C1CCN(Cc2ccc(-c3cccc(-c4nc5ccc(F)cc5[nH]4)c3)cc2)C1` (stereo unspecified) had an IC50 of 0.6 µM.
The value for `CNc1ccc(CNCc2cccc(-c3ccc(-c4nc5ccccc5[nH]4)s3)c2)cc1` was 0.73 µM.
As for `c1ccc2c(Nc3ccc(OCCOCCOc4ccc(Nc5c6ccccc6nc6ccccc56)cc4)cc3)c3ccccc3nc2c1`, the figure is 0.28 µM; as for `Cc1[nH]c2cc(F)ccc2c1C1=CCN(CCCCC2(C)C(=O)Nc3c(F)cccc32)CC1` (stereo unspecified), 0.4 µM; as for `COc1ccc(OCC(O)CN(Cc2ccccc2OC)C(=O)Nc2ccc(Br)cc2)cc1` (stereo unspecified), 0.75 µM.
The value for `O=C(Nc1cccc(CN2CCCN(Cc3ccc(O)cc3)CC2)c1)c1cccc(C(F)(F)F)c1` was 0.31 µM; that for `Cc1cccc(CNc2nc(C)cc(N[C@@H](Cc3ccccc3)C(=O)NC3CCCC3)n2)c1` was 0.65 µM; that for `Cc1ccc(C)c(CN2CCC(CNC(=O)c3cc4ccc5cccnc5c4[nH]3)CC2)c1` was 0.99 µM.
`Cc1cc(Cc2ccc(S(=O)(=O)c3cc4c(cc3O)CCN(C)CC4)cc2)ccc1Cl` gave a half-maximal inhibitory concentration (IC50) of 0.91 µM.
On to `Nc1ncc(-c2ccc(S(=O)(=O)Nc3ccc(C(=O)N[C@@H](CCC(=O)O)C(=O)O)cc3)cc2)c(=O)[nH]1`, for which the IC50 is 0.8 µM.
As to `O=C(Nc1ccc2c(c1)CCC2)c1nc(N2CCN(c3ccncc3)CC2)ccc1Cl`, the IC50 came out at 1.38 µM.
The value for `CC[C@H](C)CNC(=O)c1cccc(-c2ccc(CN3CCC(N4CCCC4)CC3)cc2)n1` was 0.79 µM; that for `COC(=O)c1ccc(-c2ccc(C(=O)NCC3CCN(c4nc(N)c5cc(OC)c(OC)cc5n4)CC3)cc2)cc1` was 0.18 µM; that for `CCCCOc1ccc(C(=O)C(CCC(CNC(C)(C)C)C(=O)c2ccc(OCCCC)cc2)CNC(C)(C)C)cc1` (stereo unspecified) was 1.02 µM.
The value for `O=C(Nc1ccc(-c2nc3ccccc3[nH]2)cc1)C1CCN(Cc2ccccc2)CC1` was 1.76 µM.
